Target: T1, DgcZ (Escherichia coli, UniProt P31129)
T1 construct: CZB domain (DgcZ-CZB, strain K12)
Test: cysteine sulfenic acid formation on purified domain, dimedone trapping and immunoblot
Format: binding

T1 sequence (P31129 2-127): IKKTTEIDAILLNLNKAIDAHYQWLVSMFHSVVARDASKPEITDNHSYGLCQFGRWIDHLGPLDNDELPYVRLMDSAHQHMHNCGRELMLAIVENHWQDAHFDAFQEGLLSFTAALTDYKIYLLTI

## OCl [HOCl]
  cysteine sulfenic acid formation on purified domain, dimedone trapping and immun: We found them to be similarly reactive toward HOCl as TlpD

— publication PMC6715182, “Helicobacter pylori senses bleach (HOCl) as a chemoattractant using a cytosolic chemoreceptor” (PLoS Biology, 2019)
